The values that follow come from a melting point compilation (Tetko et al.; mined from patent text by program, amines drawn as free bases though some values may be those of a salt).

As for `Cc1cc(-n2ccnc2)c2cccc(OCc3c(Cl)ccc(S(=O)(=O)N4CCC[C@H]4C(=O)N(C)CCCN(C)CCCO)c3Cl)c2n1`, the melting point (usually the temperature, or range, at which the solid turns liquid) was 92 °C.

The compound `O=C1CCN(Cc2ccc3ccccc3n2)CC1C(c1ccc(F)cc1)c1ccc(F)cc1` (stereo not drawn) showed a melting point of 188 to 189 °C.

Regarding `CNC(=O)ON=C1CCOc2ccccc21`, the melting point lay within 123 to 126 °C.

With `CN(C)C[C@@H]1C(=O)N[C@H]1SC(c1ccccc1)(c1ccccc1)c1ccccc1` (relative stereo), the melting point was 129 to 131 °C.

Regarding `CCOC(=O)/C=C/c1ccc(C2COc3c(C)c(C)c(NC(=O)CC(C)(C)C)c(C)c32)cc1` (stereo not drawn), the melting point fell in the range of 176 to 177 °C.

With `Cc1ccc(NC(=O)c2cccc(N(C)C)c2)cc1Nc1ncc(-c2cccnc2)o1`, the melting point was 228 °C.

The compound `COc1cc(-c2cc(=Nc3c(C)cc(C)cc3C)n(C)c(=O)n2C)ccc1O` registered a melting point of 90 to 100 °C.

Take `CC(=O)NC[C@H]1CN(c2ccc(N3CCS(=O)CC3)cc2)C(=O)O1`: the melting point fell in the range of 185 to 186 °C.

Compound `COc1ccc(-c2ccc3c(C(=O)N(C)C)c(OC)ccc3c2)cc1` returned a melting point of 187 to 188 °C.

On to `CN1CCC(c2c(O)cc(O)c3c(=O)cc(-c4ccccc4Cl)oc23)C1CS` (stereo not drawn), for which the melting point is 205 to 206 °C.

On to `c1ccc(C2CNc3ccccc3C2)cc1` (stereo not drawn), for which the melting point is 84 to 86 °C.

For the compound `Cc1ccc(NS(=O)(=O)Cc2ccccc2)c(OCc2ccccc2)c1CC(=O)O`, the melting point was 132 to 134 °C.

Regarding `S=C(NCCN(Cc1ccc(Cl)c(Cl)c1)c1ccc(Br)cn1)Nc1ccc2nn[nH]c2c1`, the melting point lay within 190 to 192 °C.

Turning to `O=C1CCC(c2ccccc2)c2cc(Cl)ccc2N1` (stereo not drawn), the melting point lay within 184 to 186 °C.

On to `CCCC[C@@]1(O)CCC[C@@]2(C)CC[C@@H]3C[C@@]21OC3(C)C`, for which the melting point lay in the range of 90 to 92 °C.

Regarding `CC(C)CCCCCCCC=CC1CC(=O)N(NC(=O)CCc2cc(C(C)(C)C)c(O)c(C(C)(C)C)c2)C1=O` (stereo not drawn), the melting point is 62 to 68 °C.

Compound `CC(C)(COCC(C)(C)c1ccc(O)cc1)c1ccc(O)cc1` yielded a melting point of 69.2 to 70 °C.

The compound `CCN(CC)c1ccc(-n2c(CC(=O)O)c(C(=O)O)c3cc(Oc4ccc(C(F)(F)F)cc4)ccc32)cc1` returned a melting point of 234 to 236 °C.

`COC(=O)c1cscc1NC(=O)NCCCCCBr` showed a melting point of 92 to 93.5 °C.

The compound `Clc1sc(Cl)c2c1CNC2` returned a melting point of over 270 °C.

As for `COc1ccc(N2C[C@](C)(CO)OC2=O)cc1`, the melting point was in the range of 131 to 132 °C.

`CN(C)C(=S)C1(c2ccccn2)CCCS1` (stereo not drawn) registered a melting point of 100 °C.

`CCn1nc2c(N)nc3ccccc3c2c1CC1(F)CCOCC1` yielded a melting point of 275 to 277 °C.

The compound `Cc1cccc(C2(CNC(=O)Nc3c(C(C)C)cccc3C(C)C)CCC2)c1` yielded a melting point of 148 to 151 °C.

`CS(=O)(=O)c1ccc(C(=O)c2cnoc2C2CC2)c(Cl)c1` displayed a melting point of 116 °C.

With `CCN1C(=O)CSC1=NOC(=O)NCCCl`, the melting point fell in the range of 99 to 102 °C.

The compound `COc1ccc(C(=O)O)c2cc(C3CCCC3)oc12` displayed a melting point of 170 to 171 °C.

In turn, `Cc1ccccc1-n1cc(C#N)c(=O)[nH]c1=O` came in with a melting point of 252 °C.

The compound `CNC(=S)Nc1ccc(Cl)nc1` gave a melting point of 164 °C.

On to `CCOP(=O)(/C=C/c1cn(-c2ccccc2)nc1OCc1ccc(OCc2nc(-c3cccc(O)c3)oc2C)c(OC)c1)OCC`, for which the melting point lay in the range of 127 to 128 °C.

As to `COc1ccc(C(=O)CCCCCN2CCC(CNC(=O)c3cc(Cl)c(N)cc3OC)CC2)cc1Cl`, the melting point is 104 to 106 °C.

`Cc1nc(C(=O)N(C)C)c2n1-c1ccc(Cl)cc1C(c1ccccc1F)=NC2`: the melting point is 158 to 160 °C.

`Cn1c(=O)c2conc2n(C2CCCCC2)c1=O` registered a melting point of 194 to 197 °C.

Consider `CCc1nn(C2CCCC2)c2cc(C(=O)NCCC(=O)NOCc3ccccc3)ccc12`, for which the melting point was 134 to 136 °C.

With `COc1cc2cc(C(=O)N3CC(CCl)c4c3cc(NCCNC(=O)OC(C)(C)C)c3ccccc43)[nH]c2c(OC)c1OC` (stereo not drawn), the melting point lay within 110 to 115 °C.

Regarding `CCOC(=O)C=C(c1ccc(Cl)cc1)c1ccc(Cl)cc1`, the melting point lay within 54 to 56 °C.

In turn, `C[C@@H](S[C@H]1CO[C@H](/C=C/C=C/c2ccc(C#N)cc2)OC1)[C@](O)(Cn1cncn1)c1ccc(F)cc1F` yielded a melting point of 147 to 149 °C.

For the compound `CC(=O)c1ccc(NS(=O)(=O)N(C)C)c(Oc2ccc(F)cc2F)c1`, the melting point is 80 to 82 °C.

Compound `Cc1cc(Oc2ccc([N+](=O)[O-])c(Cl)c2)n[nH]1` yielded a melting point of 91 to 93 °C.

Compound `Nc1ccc2c3c(cccc13)C(=O)N(C1CCN(Cc3ccccc3)CC1)C2=O` registered a melting point of 226 to 228 °C.

In turn, `CCOC(=O)c1nc2c(Cl)nc3cc(C(F)(F)F)ccc3n2c1C` registered a melting point of 182 to 183 °C.

In the case of `CC(=O)NC(C)(C)c1ccc(CN2CCN(c3ccccc3)CC2)cc1`, the melting point lay in the range of 110 to 111 °C.

Consider `CNc1nc(CO)ccc1C`, for which the melting point amounted to 87 °C.

As to `COCCC(=O)Nc1cccc(-c2cccc3cc(Cc4cccc(C(F)(F)F)c4)sc23)c1`, the melting point lay within 102 to 103 °C.

In turn, `C[C@@H]1Nc2ccc(-c3cc(F)cc(C#N)c3)cc2[C@](C)(c2ccccc2)O1` returned a melting point of 128 to 129 °C.

Regarding `COc1ccc(Cl)cc1N1C(=O)NC(=O)C1c1ccccc1` (stereo not drawn), the melting point was 200 °C.

The compound `COc1nn(-c2ccc(C=O)cc2)nc1Cl` gave a melting point of 147 to 148 °C.

`O=C(OCCc1ccc(OCc2ccc(Cl)cc2)cc1)c1cccnc1` returned a melting point of 109 to 110 °C.

Turning to `Nc1nc2c(ncn2C2CC(CO)C2CO)c(=O)[nH]1` (stereo not drawn), the melting point fell in the range of 91 to 92 °C.

`CSCc1cn(C)c2cc(C(C)(C)C)ccc2c1=O` came in with a melting point of 114 to 116 °C.

The compound `COC(=O)c1ccc2c(c1)S(=O)(=O)N=CN2C1CC1` gave a melting point of 192 to 195 °C.

As to `CCCCN1CC(=O)NC1=O`, the melting point was 90 to 92 °C.

Compound `ON=C1Cc2ccccc2C(=NO)c2ccccc21` registered a melting point of 220 to 221 °C.

Consider `NS(=O)(=O)c1cc2c(s1)S(=O)(=O)CCN2`, for which the melting point lay in the range of 250 to 252 °C.

With `O=C1NCCN1c1ccc(S(=O)(=O)Nc2ccc(C3CCCCC3)cc2)cc1`, the melting point is 256 to 257 °C.

For `CCCNC(=O)C1(CCCc2ccccc2N2Cc3ccccc3C2=O)c2ccccc2-c2ccccc21`, the melting point was in the range of 122 to 125 °C.

`COc1cc(OC)cc(N2CCN(C(=O)[C@](C)(C#N)[C@H](c3ccccc3OC)c3cccc4ccccc34)CC2)c1` had a melting point of 186 to 188 °C.

Compound `CC[C@@H](C)[C@H](N)C(=O)N1CC(F)(F)C(F)(F)C1` yielded a melting point of over 250 °C.

In turn, `Cc1ncc(I)nc1C` returned a melting point of 51 to 54 °C.

For the compound `N#Cc1ccccc1-c1cc(-c2cnc3nc(C(F)(F)F)cnn23)ccc1F`, the melting point lay in the range of 168 to 174 °C.

On to `O=[N+]([O-])c1cnn2c(-c3ccccc3)nc3ccccc3c12`, for which the melting point is 187 to 188 °C.

In turn, `CCCCCc1ccc(CCc2ccc(-c3ccc([C@H]4CC[C@H](CCCCC)CC4)cc3F)cc2)cc1` yielded a melting point of 69 °C.

`CNC(=O)c1ccccc1Nc1nc(Nc2ccc3c(c2)COC[C@@H]2CCCN32)ncc1Cl` showed a melting point of 216 to 218 °C.

In the case of `N#Cc1cc(C2CCCO2)nn1-c1ccc(NC(=O)c2ccncc2F)cc1` (stereo not drawn), the melting point is 160 to 162 °C.

`CCOC(=O)NN(C)c1cc(C)c(-c2ccc(C#N)cc2)nn1` registered a melting point of 138 to 142 °C.

Compound `CCOC(=O)c1c(C)cc2cnc(-c3ccccc3C(F)(F)F)nc2c1C` returned a melting point of 68 to 69 °C.

`CC(=O)SCC(Cc1ccccc1)C(=O)Nc1cc(C(=O)O)ccc1CN1CCCC1` (stereo not drawn) came in with a melting point of 95 to 98 °C.

In turn, `COc1cc(N2CCCN(C[C@H](O)CO)CC2)ccc1Nc1ncc2ccc(-c3ccccc3OC)n2n1` had a melting point of 93 to 99 °C.

`COc1ccc(C2(C#Cc3ccc(C(=O)O)cc3)CCCC(=O)C2)cc1OC1CCCC1` (racemic): the melting point was in the range of 102 to 104 °C.

Take `CCN(CC)C(C)CNc1ccc(NCC(C)N(CC)CC)c2c1C(=O)c1c(O)ccc(O)c1C2=O` (stereo not drawn): the melting point lay in the range of 126 to 128 °C.

In turn, `O=C(O)c1cc(=O)c2c(OCC(O)COc3ccc(Cl)cc3)cccc2o1` (stereo not drawn) had a melting point of 191 to 193 °C.

In turn, `C[C@H]1[C@@H](C(N)=O)CCN1c1ccc(C#N)c2ccccc12` had a melting point of 204 to 206 °C.

Consider `O=C(C(=O)c1ccc(Cl)cc1)c1ccncc1`, for which the melting point lay in the range of 119 to 120 °C.

In turn, `CCCCCCCCCCCCC(C)(C)NC(=O)Nc1ccccc1C(=O)NC1CCN(C(c2ccccc2)c2ccccc2)CC1` showed a melting point of 146 to 148 °C.

As for `CCC(Nc1ccccc1C(=O)O)c1nccnc1OCc1ccccc1` (stereo not drawn), the melting point was 142 °C.

Compound `Cc1ccc(S(=O)(=O)Oc2ccc(C=O)cc2)cc1` showed a melting point of 70 to 72 °C.

The compound `COc1cc(COc2ccccc2C=O)cc(OC)c1` came in with a melting point of 68 to 69 °C.

In the case of `OC[C@H](O)CN1CCC[C@@H](Nc2nccc(-c3c(-c4cccc(O)c4)nc4sccn34)n2)C1`, the melting point lay within 185 to 187 °C.

`Cc1cc(NC(=O)c2c(Cl)cccc2Cl)c2nccc(N3CCN(C)C3=O)c2c1C` registered a melting point of 213 to 216 °C.

Turning to `CC(C)NCC(O)COc1ccc2c(c1)CCN(C=O)C2` (stereo not drawn), the melting point was in the range of 56.6 to 58 °C.

Consider `O=C(Cl)N1CCC1Oc1ccc(C(F)(F)F)cc1Cl` (stereo not drawn), for which the melting point lay in the range of 86 to 88 °C.

`CC(C)(OCc1nn(C2CCCc3ccccc32)c2ccccc12)C(=O)O` (stereo not drawn) returned a melting point of 132 to 134 °C.

Take `Oc1cc(O)c2c(c1)Oc1ccc(Br)cc1CC2`: the melting point lay within 174 to 176 °C.

The compound `Cc1oc(-c2ccccc2)nc1COc1ccc(Cn2cc(CC(=O)O)c(-c3ccccc3)n2)cn1` showed a melting point of 144 to 145 °C.

Compound `COc1ccc(C(C)=O)cc1C(F)(F)F` yielded a melting point of 56 to 57 °C.

Take `CCCCCN(CCCCC)C(=O)N1CCN(C(=O)N(c2ccccc2)c2ccccc2)[C@H](CO)C1`: the melting point fell in the range of 133 to 134 °C.

The compound `c1cc2c(c(-c3nc4ncccc4o3)c1)CCCC2` yielded a melting point of 87 to 90 °C.

In turn, `CCCCC[C@H]1CC[C@H](c2ccc(C#Cc3ccc(OC(F)F)cc3)cc2)CC1` returned a melting point of 62 °C.
